Assay results as given in patent US8815210B2, “Diagnostic composition comprising plasma cations having superior safety profile” (GE Healthcare AS, priority 2009, dated 2014).
“Also recorded” adds a separate entry of the source.

What was measured:
[1] = Partition coefficient between octanol and water; format: physicochemical; details: n-octanol/water
Experimental: As a measure of the hydrophilicity of Compound I, the partition coefficient between octanol and water was determined. Water (5 ml) containing the test substance (0.3 mg/ml) was shaken with 15 ml n-octanol until equilibrium had been obtained. The aqueous phase was separated by centrifugation and analyzed by HPLC (HP1100 equipped with a Discovery C18 column, 100×2.1 mm) using UV detection at 244 nm and a flow of 0.3 ml/min. Isocratic HPLC conditions were used, 8% acetonitrile in water (v/v). The octanol phase (12.5 ml) was extracted with water (0.75 ml) until equilibrium had been obtained and the phases were separated by centrifugation. The aqueous phase was analyzed by HPLC using the conditions detailed above. Both octanol and water were pre-saturated with water and octanol, respectively, before the partition coefficient experiments. […] As a comparison, the corresponding logP of iodixanol was determined to −4.02. The reported literature value is −4.05. The increased hydrophilicity of Compound I compared to iodixanol is confirmed by its HPLC behavior.

[2] = test system: CD25^+-depleted peripheral blood mononuclear cells; experiment: In vitro T cell proliferation model; format: cell-based; details: 2 and 5 mg I/mL, 100 donors, positive response stimulation index ≧1.9
Experimental: Generally, iodinated contrast media may cause late hypersensitivity reactions in susceptible patients from 1 hour to several days after exposure. These reactions are mainly non-serious skin eruptions such as macular, maculopapular and urticaria-like eruptions. Contrast media-induced delayed adverse reactions (DARs) such as skin eruptions appear to be caused by contrast media-reactive T cells that, upon recognizing the contrast media, proliferate and subsequently orchestrate an inflammatory reaction in the skin. The applicant has evaluated an in vitro T cell proliferation model designed to predict the relative frequency with which contrast media, such as Compound I, will cause late skin reactions in patients post-intravascular administration. Two contrast media, iodixanol and iohexol, with known rates of delayed skin reactions, and the new contrast medium, Compound I, was screened (2 and 5 mg I/mL) for in vitro T cell proliferation in CD25^+-depleted peripheral blood mononuclear cells from 100 donors representing world population HLA-DR frequencies. Positive T cell responses were evaluated according to published protocols and stimulation index values (positive response≧1.9). In vitro toxicity was tested by measuring cell viability of the first 10 donor samples incubated with test contrast media (5 mg I/mL). The results were that all major HLA-DR allotypes were represented with a frequency equivalent to the world population. No contrast media tested appeared to have a meaningful effect on cell viability. […] For iodixanol and iohexol, T cell proliferation responses for most donors occurred on days 7 and 8; statistical significance favored a reduced proliferation response to Compound I on day 8. In conclusions the model successfully established the relative frequency with which contrast media caused in vitro T cell activation. The results correlated with reported frequency of late skin reactions with two marketed contrast media and identified a lower frequency for Compound I.

normal pigs [3] = experiment: Haemodynamic effects after fast LAD injection in normal pigs (Example 2c); format: in vivo, pig; details: 40 ml at 5 ml/sec into LAD; Compound I in composition with 45 mM NaCl and 0.5 mM CaCl2
Experimental: FIG. 6 a) and b) depicts the effect on cardiovascular parameters following injection of 40 ml (5 ml/sec) of Ringer Lactate, Compound I, Visipaque or Iopamidol to the LAD of normal pigs.
In a further study the haemodynamic effects of Compound I in a composition with 45 mM NaCl and 0.5 mM CaCl2 was compared to Visipaque and Iopamidol following selective administration to the LAD of normal pigs with a fast injection rate (5 ml/sec). Ringer Lactate was also studied as a volume and electrolyte “ratio” control. In total 3 pigs were studied, and each CM was administered twice to each pig in random order. The injection rate used was 5 ml/sec with a total injection volume of 40 ml.

[4] = test system: human serum albumin (HSA); experiment: Binding to human serum albumin, equilibrium dialysis; format: in vitro ADME; details: 25 hours, citrated human plasma
Experimental: The binding of Compound I to human serum albumin (HSA) was determined using an equilibrium dialysis method. The binding of Compound I to human serum albumin was determined to be very low, 3.1±1.3%, confirming the negligible interaction of the substance with endogenous proteins.
The binding of Compound I to human serum albumin (HSA) was determined using an equilibrium dialysis method. A stock solution of Compound I (5.0 mg/ml in phosphate buffered saline (PBS)) was mixed with citrate:human plasma in a ratio of 1:9. Equilibration was carried out in a Diachem Dianorm Dialyser against an aqueous phosphate buffered saline using a Diachem 10.17 MW cutoff 10000 membrane and was carried out for 25 hours. Analysis of the solutions was performed using an ICP-AES instrument. In addition, spiked PBS solutions were also equilibrated against citrated human plasma solutions to ensure that the equilibrium had been obtained. The binding of Compound I to human serum albumin was determined to be very low, 3.1±1.3%, confirming the negligible interaction of the substance with endogenous proteins. As a reference, the binding of iodixanol to HSA was determined to 0.4±0.9%.

normal pigs [5] = experiment: Haemodynamic effects after LAD injection in normal pigs without balloon occlusion (Example 2b); format: in vivo, pig; details: 25 ml into LAD, 45 to 70 seconds after injection
Description: FIG. 5 depicts the effect of Compound I (with and without added Ca) and Visipaque on LVSP 45 to 70 seconds from the start of injection to the LAD of normal pigs normalised to Ringer Lacate (LR) injection.
The haemodynamic effects of compositions of Compound I with and without added CaCl2 were compared to Visipaque and Iopamidol following selective administration to the LAD in normal pigs without balloon occlusion. The effects of each contrast media were normalised to any effects seen with an equivalent injection of Ringer Lactate solution, which acted as a volume and electrolyte—“ratio” control. There were a total of 12 pigs in this study, and each pig received a single CM injected 3 times at volumes of 10 ml (4 ml/sec), 20 ml (1 ml/sec) and 25 ml (0.4 ml/sec) (total of 9 CM injections in each pig). Each CM was either preceded or followed by a control injection of Ringer Lactate, and the order of each injection (volume) was randomised in each pig.

SMILES: O=CN(CC(O)CN(C=O)c1c(I)c(C(=O)NCC(O)CO)c(I)c(C(=O)NCC(O)CO)c1I)c1c(I)c(C(=O)NCC(O)CO)c(I)c(C(=O)NCC(O)CO)c1I (stereo not drawn) [Compound I, 5-[formyl-[3-[formyl-[3,5-bis(2,3-dihydroxypropylcarbamoyl)-2,4,6-triiodophenyl]amino]-2-hydroxypropyl]amino]-N,N′-bis(2,3-dihydroxypropyl)-2,4,6-triiodobenzene-1,3-dicarboxamide]
- logP [1]: -4.28
- positive T cell proliferation donor samples [2]: fewer positive T cell proliferation donor samples compared with iodixanol and iohexol; also recorded: lowest capacity for stimulating in vitro T cell proliferation
- increase in LVSP from baseline (normal pigs [3]): ~5%
- binding to human serum albumin (HSA) [4]: 3.1±1.3%
- LVSP change normalised to Ringer Lactate (normal pigs [5]; composition with 45 mM NaCl and 0.5 mM CaCl2): −0.3 mm Hg
- LVSP change normalised to Ringer Lactate (mean) (normal pigs [5]; composition with 45 mM NaCl, no added CaCl2): −5.7 mm Hg
